Assay [1] addresses T1, glucosylceramide synthase (GCS) (Homo sapiens, UniProt Q16739).
T1 construct: The obtained supernatant was used; host or cells: A549 cells (lysate supernatant after sonication)
T1 sequence (Q16739 1-394): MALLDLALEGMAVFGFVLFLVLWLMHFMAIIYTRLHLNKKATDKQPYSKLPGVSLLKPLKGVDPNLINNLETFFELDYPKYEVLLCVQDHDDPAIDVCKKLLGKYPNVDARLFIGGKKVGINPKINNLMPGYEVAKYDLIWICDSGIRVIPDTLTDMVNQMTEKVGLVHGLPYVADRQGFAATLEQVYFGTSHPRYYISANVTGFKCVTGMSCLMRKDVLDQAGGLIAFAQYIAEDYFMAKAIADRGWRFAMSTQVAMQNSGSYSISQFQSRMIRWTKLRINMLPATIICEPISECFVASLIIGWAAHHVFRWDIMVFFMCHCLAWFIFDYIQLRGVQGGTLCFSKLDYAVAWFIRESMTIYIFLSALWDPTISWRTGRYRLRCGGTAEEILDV
Briefly: GCS enzyme inhibition assay (A549 cell lysate, NBD C6-ceramide, HPLC fluorescence). Type of assay: biochemical. Conditions: inhibitory activity against GCS, 37° C., 90 minutes. The procedure:
Ibiglustat, known as a GCS inhibitor, was used as a control.
After the cells attached to the culture dish were washed with phosphate buffered saline (PBS), the cells were scraped off with a cell scraper and then centrifuged (4000 rpm, 3 min, 4° C.) to collect the cells in a 50 ml tube. The cell pellets were suspended in a lysis buffer (50 mM HEPES, pH 7.3, containing 1× the protease/phosphatase inhibitor cocktail), lysed by sonication, and then the lysate was centrifuged (13000 rpm, 10 min, 4° C.). The obtained supernatant was used for the quantitative analysis of proteins. The amount of proteins was measured using the BCA protein assay kit, using bovine serum albumin as a standard.
Enzymatic reactions were initiated by sequentially adding the following reaction materials to a 96 deep-well plate. Thereafter, the enzymatic reactions were performed at 37° C. for 90 minutes.
The enzymatic reactions were stopped by adding 100 μl of chloroform/methanol (2:1, v/v). After vortexing for 15 seconds, each mixture was centrifuged (4000 rpm, 10 min, 18° C.). The lower layer (50 μl) was transferred to a new 96 deep-well plate and dried with a reduced concentrator.
Data analysis was performed by the following equations. % Area(Sample)=Area(GlcCer)/[Area(Cer)+Area(GlcCer)]×100 % GCS activity=[Area(Sample)−Area(ibiglustat)]/[Area(DMSO)−Area(ibiglustat)]×100

The subject of assay [2] is GM1 production in Jurkat cells. Put plainly: cells. Type of assay: cell-based. Conditions: Homo sapiens, Jurkat, 72 h.

The values that follow come from US12673944B2, “Compounds having inhibitory activity against glucosylceramide synthase or pharmaceutically acceptable salt thereof, processes for preparing the same, and pharmaceutical compositions comprising the same” (YUHAN CORPORATION, priority 2019, dated 2026).

By IC50 is commonly meant the midpoint of a concentration-inhibition curve. Read a low IC50 as greater potency.

In the case of `O=C(NC1CCOc2cc(-c3cc(Cl)cc(Cl)c3)ccc21)O[C@@H]1CN2CCC1CC2` (stereo partly drawn) [Example 29, (S)-quinuclidin-3-yl (7-(3,5-dichlorophenyl)chroman-4-yl)carbamate], the IC50 in assay [1] turned out to be 2.28 nM; in assay [2], 12.4 nM.
The like results for `O=C(NC1CCOc2cc(-c3ccc(F)c(F)c3F)ccc21)O[C@@H]1CN2CCC1CC2` (stereo partly drawn) [Example 30, (S)-quinuclidin-3-yl (7-(2,3,4-trifluorophenyl)chroman-4-yl)carbamate] were, in that order, 3.92 nM and 48.2 nM.
The like results for `O=C(NC1CCOc2cc(-c3cc(F)c(F)cc3F)ccc21)O[C@@H]1CN2CCC1CC2` (stereo partly drawn) [Example 31, (S)-quinuclidin-3-yl (7-(2,4,5-trifluorophenyl)chroman-4-yl)carbamate] were, in that order, 3.26 nM and 27.6 nM.
On the same counts, the results for `O=C(NC1CCOc2cc(-c3ccc(OC(F)F)cc3)ccc21)O[C@@H]1CN2CCC1CC2` (stereo partly drawn) [Example 32, (S)-quinuclidin-3-yl (7-(4-(difluoromethoxy)phenyl)chroman-4-yl)carbamate] are 3.34 nM and 48.6 nM.
Regarding `O=C(NC1CCOc2cc(-c3ccc(F)c(C(F)(F)F)c3)ccc21)O[C@@H]1CN2CCC1CC2` (stereo partly drawn) [Example 33, (S)-quinuclidin-3-yl (7-(4-fluoro-3-(trifluoromethyl)phenyl)chroman-4-yl)carbamate], the half-maximal inhibitory concentration (IC50) in assay [1] stood at 1.43 nM; in assay [2], 10.8 nM.
In the case of `O=C(NC1CCOc2cc(-c3cc(Cl)cc(C(F)(F)F)c3)ccc21)O[C@@H]1CN2CCC1CC2` (stereo partly drawn) [Example 34, (S)-quinuclidin-3-yl (7-(3-chloro-5-(trifluoromethyl)phenyl)chroman-4-yl)carbamate], the values for the half-maximal inhibitory concentration (IC50) in assay [1] and in assay [2] were 1.97 nM and 5.97 nM, respectively.
With `O=C(NC1CCOc2cc(-c3ccc(C4CC4)cc3)ccc21)O[C@@H]1CN2CCC1CC2` (stereo partly drawn) [Example 35, (S)-quinuclidin-3-yl (7-(4-cyclopropylphenyl)chroman-4-yl)carbamate], the 50% inhibitory concentration (IC50) stood at 2.77 nM in assay [1] and 5.44 nM in assay [2].
`O=C(NC1CCOc2cc(-c3ccc4c(c3)OC(F)(F)O4)ccc21)O[C@@H]1CN2CCC1CC2` (stereo partly drawn) [Example 36, (S)-quinuclidin-3-yl (7-(2,2-difluorobenzo[d][1,3]dioxol-5-yl)chroman-4-yl)carbamate]: the half-inhibitory concentration (IC50) was 1.53 nM in assay [1] and 11.1 nM in assay [2].
As to `O=C(NC1CCOc2cc(-c3ccc4c(c3)OCCO4)ccc21)O[C@@H]1CN2CCC1CC2` (stereo partly drawn) [Example 37, (S)-quinuclidin-3-yl (7-(2,3-dihydrobenzo[b][1,4]dioxin-6-yl)chroman-4-yl)carbamate], the concentration for half-maximal inhibition (IC50) in assay [1] was 1.4 nM; in assay [2], 9.47 nM.
On the same counts, the results for `O=C(NC1CCOc2cc(C3=CCCO3)ccc21)O[C@@H]1CN2CCC1CC2` (stereo partly drawn) [Example 38, (S)-quinuclidin-3-yl (7-(2,3-dihydrofuran-5-yl)chroman-4-yl)carbamate] are 3.02 nM and 14.5 nM.
In the case of `N#Cc1cccc(-c2ccc3c(c2)OCCC3NC(=O)O[C@@H]2CN3CCC2CC3)c1` (stereo partly drawn) [Example 39, (S)-quinuclidin-3-yl (7-(3-cyanophenyl)chroman-4-yl)carbamate], the half-maximal inhibitory concentration (IC50) was 1.82 nM in assay [1] and 7.73 nM in assay [2].
Turning to `N#Cc1ccccc1-c1ccc2c(c1)OCCC2NC(=O)O[C@@H]1CN2CCC1CC2` (stereo partly drawn) [Example 40, (S)-quinuclidin-3-yl (7-(2-cyanophenyl)chroman-4-yl)carbamate], the concentration for half-maximal inhibition (IC50) in assay [1] was determined as 3.78 nM; in assay [2], 19.7 nM.
The like results for `CN(C)c1cccc(-c2ccc3c(c2)OCCC3NC(=O)O[C@@H]2CN3CCC2CC3)c1` (stereo partly drawn) [Example 41, (S)-quinuclidin-3-yl (7-(3-(dimethylamino)phenyl)chroman-4-yl)carbamate] were, in that order, 0.52 nM and 0.45 nM.
On the same counts, the results for `O=C(NC1CCOc2cc(-c3cc4ccccc4s3)ccc21)O[C@@H]1CN2CCC1CC2` (stereo partly drawn) [Example 42, (S)-quinuclidin-3-yl (7-(benzo[b]thiophen-2-yl)chroman-4-yl)carbamate] are 14 nM and 34.1 nM.
